Assay results taken from patent publication US20040209849A1, “Use of effectors of the central cholinergic nervous system for treatment of delirium” (priority 1998, published 2004).

Tested on: non-anticholinergic delirium (lithium poisoning, severe hyperactive delirium)
Experiment: Individual case: treatment of a non-anticholinergic (lithium poisoning) delirium with orally administered rivastigmine
Type: in vivo, human
Conditions: patient, after 48 hours of therapy at 2×1.5 mg
Text: Treatment of a non-anticholinergic delirium with an orally administered modern inhibitor of acetylcholine esterase, rivastigmine
A patient had suffered from manic-depressive disease. Until recently there were no mental disintegration phenomena. After a urinary tract infection with lithium therapy of the manic-depressive condition, lithium poisoning occurred with a severe hyperactive delirium which forced the patient to be admitted to a hospital on an in-patient ward. These lithium poisoning deliria generally subside completely only after 6-8 weeks. The patient was transferred to a private clinic after 4 days and was highly psychotic, urinated in the corner of the room, talked to the lamp on the night table, hallucinated strange individuals and dwarves in the room, repeatedly fled the ward, believed that the nursing personnel wanted to kill them, was extremely agitated in motor response and restless, fumbled around with the blanket and phone cord, fell asleep repeatedly during the day, but remained up all night. The patient cried and laughed in alternation, suddenly became afraid again and again and then laughed. All these symptoms were very unstable, highly varied, but the patient was not actually responsive on the admission date. On the Trzepacz scale of delirium (Psychiatry Research, 23, (1988), […]) a score of 29 (of a possible 32) corresponding to a severe delirium was reached. […]

CCN(C)C(=O)Oc1cccc([C@H](C)N(C)C)c1 [rivastigmine]
clinical state after therapy: the patient was oriented, no longer hallucinated | delirium score on the Trzepacz scale of delirium (score before therapy 29 (of a possible 32)): 8
